Assay results published in patent US11554171B2, “Compounds and methods for the targeted degradation of bromodomain-containing proteins” (Arvinas Operations, Inc., priority 2015, dated 2023).

Test system: c-myc in 22RV-1 cells
Test: Human c-myc ELISA assay
Assay type: cell-based
Conditions: Homo sapiens; for Emax: 22Rv1, 18 h, read-out: Degradation of BRD4: Maximum inhibition (%) c-Myc ELISA in 22RV1 cells; for DC50: 22Rv1, read-out: Degradation of BRD4: DC50 (uM) c-Myc ELISA in 22RV1 cells
Method in brief: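 c-myc levels measured by ELISA in RIPA lysates of 22RV-1 cells, calibrated with a 333-0 pg/ml standard curve. Lysates came from cells exposed for 18 h to an 8-point, 1:3 dose series starting at 300 nM or 1 μM final in 0.1% DMSO. Suppression potency given as DC50.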

DC50	Compound	Emax
0.1 to 1 µM	Cc1ncsc1-c1ccc(CNC(=O)[C@@H]2C[C@@H](O)CN2C(=O)[C@@H](NC(=O)COCCOCCOCCCOCCOCCN(C)C(=O)C[C@@H]2N=C(c3ccc(Cl)cc3)c3c(sc(C)c3C)-n3c(C)nnc32)C(C)(C)C)cc1 [Example 17, (2S,4R)-1-[(2S)-2-(18-{2-[(9S)-7-(4-chlorophenyl)-4,5,13-trimethyl-3-thia-1,8,11,12-tetraazatricyclo[8.3.0.0^2,^6]trideca-2(6),4,7,10,12-pentaen-9-yl]-N-methylacetamido}-3,6,9,13,16-pentaoxaoctadecanamido)-3,3-dimethylbutanoyl]-4-hydroxy-N-{[4-(4-methyl-1,3-thiazol-5-yl)phenyl]methyl}pyrrolidine-2-carboxamide]	85%
< 0.01 µM	Cc1ncsc1-c1ccc([C@H](C)NC(=O)[C@@H]2C[C@@H](O)CN2C(=O)[C@@H](NC(=O)Cc2ccc(-c3cn([C@@H](C)CNC(=O)C[C@@H]4N=C(c5ccc(Cl)cc5)c5c(sc(C)c5C)-n5c(C)nnc54)cn3)cc2)C(C)(C)C)cc1 [Example 341]	98.5%
< 0.01 µM	Cc1ncsc1-c1ccc(CNC(=O)[C@@H]2C[C@@H](O)CN2C(=O)[C@@H](NC(=O)COc2ccc(O[C@H]3C[C@@H](NC(=O)C[C@@H]4N=C(c5ccc(Cl)cc5)c5c(sc(C)c5C)-n5c(C)nnc54)C3)nc2)C(C)(C)C)cc1 [Example 118]	94.4%
> 1 µM	Cc1ncsc1-c1ccc(CNC(=O)[C@@H]2C[C@@H](O)CN2C(=O)[C@H](c2cnn(CCCOCCNC(=O)C[C@@H]3N=C(c4ccc(Cl)cc4)c4c(sc(C)c4C)-n4c(C)nnc43)c2)C(C)C)cc1 [Example 145]	15.9%
< 0.01 µM	Cc1ncsc1-c1ccc([C@H](C)NC(=O)[C@@H]2C[C@@H](O)CN2C(=O)[C@@H](NC(=O)CCc2cc(OC(C)CNC(=O)C[C@@H]3N=C(c4ccc(Cl)cc4)c4c(sc(C)c4C)-n4c(C)nnc43)ccc2F)C(C)(C)C)cc1 (stereo partly drawn) [Example 151]	96%
> 1 µM	Cc1ncsc1-c1ccc([C@H](C)NC(=O)[C@@H]2C[C@@H](O)CN2C(=O)[C@@H](C(C)C)n2cc(-c3ccc(N4CC(NC(=O)C[C@@H]5N=C(c6ccc(Cl)cc6)c6c(sc(C)c6C)-n6c(C)nnc65)C4)nc3)cn2)cc1 [Example 255]	35.5%
> 1 µM	Cc1ncsc1-c1ccc(CNC(=O)[C@@H]2C[C@@H](O)CN2C(=O)[C@H](C(C)C)N2Cc3ccccc3C2=O)c(OCCOCCOCCCOCCOCCNC(=O)C[C@@H]2N=C(c3ccc(Cl)cc3)c3c(sc(C)c3C)-n3c(C)nnc32)c1 [Example 5]	25%
< 0.01 µM	Cc1ncsc1-c1ccc(CNC(=O)[C@@H]2C[C@@H](O)CN2C(=O)[C@@H](NC(=O)COCCCCCOc2cccc(NC(=O)C[C@@H]3N=C(c4ccc(Cl)cc4)c4c(sc(C)c4C)-n4c(C)nnc43)c2)C(C)(C)C)cc1 [Example 125]	99.5%
0.1 to 1 µM	CC(=O)N[C@H](C(=O)N1C[C@H](O)C[C@H]1C(=O)NCc1ccc(-c2scnc2C)cc1OCCOCCOc1ccc(C2=NC(CC(=O)Nc3ccccc3)c3nnc(C)n3-c3sc(C)c(C)c32)cc1)C(C)(C)C (stereo partly drawn) [Example 149]	57.3%
< 0.01 µM	Cc1ncsc1-c1ccc([C@H](C)NC(=O)[C@@H]2C[C@@H](O)CN2C(=O)[C@@H](NC(=O)/C=C/c2cccc(O[C@@H](C)CNC(=O)C[C@@H]3N=C(c4ccc(Cl)cc4)c4c(sc(C)c4C)-n4c(C)nnc43)c2)C(C)(C)C)cc1 [Example 158]	96.5%
< 0.01 µM	Cc1ncsc1-c1ccc([C@H](C)NC(=O)[C@@H]2C[C@@H](O)CN2C(=O)[C@@H](NC(=O)/C=C/c2ccc(F)c(O[C@H](C)CNC(=O)C[C@@H]3N=C(c4ccc(Cl)cc4)c4c(sc(C)c4C)-n4c(C)nnc43)c2)C(C)(C)C)cc1 [Example 161]	97%
0.01 to 0.1 µM	Cc1ncsc1-c1ccc(CNC(=O)[C@@H]2C[C@@H](O)CN2C(=O)[C@@H](NC(=O)COCCCOCCNC(=O)CC2N=C(c3ccc(Cl)cc3)c3c(sc(C)c3C)-n3c(C)nnc32)C(C)(C)C)cc1 (stereo partly drawn) [Example 105]	97%
0.01 to 0.1 µM	Cc1ncoc1-c1ccc(CNC(=O)[C@@H]2C[C@@H](O)CN2C(=O)[C@@H](NC(=O)COCCCOCCNC(=O)C[C@@H]2N=C(c3ccc(Cl)cc3)c3c(sc(C)c3C)-n3c(C)nnc32)C(C)(C)C)cc1 [Example 74]	97%
> 1 µM	Cc1ncsc1-c1ccc([C@H](C)NC(=O)[C@@H]2C[C@@H](O)CN2C(=O)[C@H](NC(=O)CN2CCC(O[C@H]3C[C@H](NC(=O)C[C@@H]4N=C(c5ccc(Cl)cc5)c5c(sc(C)c5C)-n5c(C)nnc54)C3)CC2)C(C)(C)C)cc1 [Example 348]	46%
> 1 µM	Cc1ncoc1-c1ccc([C@H](C)NC(=O)[C@@H]2C[C@@H](O)CN2C(=O)[C@@H](C(C)C)n2cc(-c3ccnc(O[C@H]4C[C@@H](NC(=O)C[C@@H]5N=C(c6ccc(Cl)cc6)c6c(sc(C)c6C)-n6c(C)nnc65)C4)c3)cn2)cc1 [Example 276]	36%
< 0.01 µM	Cc1ncsc1-c1ccc([C@H](C)NC(=O)[C@@H]2C[C@@H](O)CN2C(=O)[C@@H](NC(=O)CCc2ccc(O[C@H]3C[C@@H](NC(=O)C[C@@H]4N=C(c5ccc(Cl)cc5)c5c(sc(C)c5C)-n5c(C)nnc54)C3)nc2)C(C)(C)C)cc1 [Example 171]	97%
< 0.01 µM	Cc1ncsc1-c1ccc(CNC(=O)[C@@H]2C[C@@H](O)CN2C(=O)C(c2cc(OCCCCCNC(=O)C[C@@H]3N=C(c4ccc(Cl)cc4)c4c(sc(C)c4C)-n4c(C)nnc43)no2)C(C)C)cc1 (stereo partly drawn) [Example 90]	100%
0.01 to 0.1 µM	Cc1ncsc1-c1ccc(CNC(=O)[C@@H]2C[C@@H](O)CN2C(=O)[C@@H](NC(=O)c2cccc(CCOCCNC(=O)C[C@@H]3N=C(c4ccc(Cl)cc4)c4c(sc(C)c4C)-n4c(C)nnc43)n2)C(C)(C)C)cc1 [Example 164]	96%
> 1 µM	Cc1ncsc1-c1ccc(CNC(=O)[C@@H]2C[C@@H](O)CN2C(=O)[C@H](c2cc(OCCN3CCC(NC(=O)C[C@@H]4N=C(c5ccc(Cl)cc5)c5c(sc(C)c5C)-n5c(C)nnc54)CC3)no2)C(C)C)cc1 [Example 315]	11.4%
< 0.01 µM	Cc1ncsc1-c1ccc(CNC(=O)[C@@H]2C[C@@H](O)CN2C(=O)[C@H](C(C)C)n2cc(-c3cccc(OCCNC(=O)C[C@@H]4N=C(c5ccc(Cl)cc5)c5c(sc(C)c5C)-n5c(C)nnc54)c3)cn2)cc1 [Example 163]	96.5%
0.1 to 1 µM	Cc1ncsc1-c1ccc(CNC(=O)[C@@H]2C[C@@H](O)CN2C(=O)[C@@H](c2cnn(CCCOCCNC(=O)C[C@@H]3N=C(c4ccc(Cl)cc4)c4c(sc(C)c4C)-n4c(C)nnc43)c2)C(C)C)cc1 [Example 144]	73%
< 0.01 µM	Cc1ncsc1-c1ccc([C@H](C)NC(=O)[C@@H]2C[C@@H](O)CN2C(=O)[C@@H](NC(=O)c2cc3cc(OCCNC(=O)C[C@@H]4N=C(c5ccc(Cl)cc5)c5c(sc(C)c5C)-n5c(C)nnc54)ccc3o2)C(C)(C)C)cc1 [Example 165, (2S,4R)-1-[(2S)-2-{[5-(2-{2-[(9S)-7-(4-chlorophenyl)-4,5,13-trimethyl-3-thia-1,8,11,12-tetraazatricyclo[8.3.0.0^2,^6]trideca-2(6),4,7,10,12-pentaen-9-yl]acetamido}ethoxy)-1-benzofuran-2-yl]formamido}-3,3-dimethylbutanoyl]-4-hydroxy-N-[(1S)-1-[4-(4-methyl-1,3-thiazol-5-yl)phenyl]ethyl]pyrrolidine-2-carboxamide]	97%
0.01 to 0.1 µM	Cc1ncsc1-c1ccc(CNC(=O)[C@@H]2C[C@@H](O)CN2C(=O)[C@@H](NC(=O)COCCCOc2ccc3c(c2)c2c(C(N)=O)cc(-c4c(C)noc4C)cc2n3Cc2ccccc2)C(C)(C)C)cc1 [Example 184]	91.5%
0.01 to 0.1 µM	Cc1ncsc1-c1ccc([C@H](C)NC(=O)[C@@H]2C[C@@H](O)CN2C(=O)[C@@H](NC(=O)Cc2ccc(-c3cn([C@H](C)CNC(=O)C[C@@H]4N=C(c5ccc(Cl)cc5)c5c(sc(C)c5C)-n5c(C)nnc54)cn3)cc2)C(C)(C)C)cc1 [Example 340]	92.2%
0.01 to 0.1 µM	Cc1ncsc1-c1ccc([C@H](C)NC(=O)[C@@H]2C[C@@H](O)CN2C(=O)[C@@H](NC(=O)CN2CCN(C3CC4(C3)CN(C(=O)C[C@@H]3N=C(c5ccc(Cl)cc5)c5c(sc(C)c5C)-n5c(C)nnc53)C4)C[C@H]2C)C(C)(C)C)cc1 [Example 356]	100%
< 0.01 µM	Cc1ncsc1-c1ccc([C@H](C)NC(=O)[C@@H]2C[C@@H](O)CN2C(=O)[C@@H](NC(=O)c2ccc(OCCCNC(=O)C[C@@H]3N=C(c4ccc(Cl)cc4)c4c(sc(C)c4C)-n4c(C)nnc43)cn2)C(C)(C)C)cc1 [Example 114, 5-(3-{2-[(9S)-7-(4-chlorophenyl)-4,5,13-trimethyl-3-thia-1,8,11,12-tetraazatricyclo[8.3.0.0^2,^6]trideca-2(6),4,7,10,12-pentaen-9-yl]acetamido}propoxy)-N-[(2S)-1-[(2S,4R)-4-hydroxy-2-{[(1S)-1-[4-(4-methyl-1,3-thiazol-5-yl)phenyl]ethyl]carbamoyl}pyrrolidin-1-yl]-3,3-dimethyl-1-oxobutan-2-yl]pyridine-2-carboxamide]	99.5%

Compound	DC50	Emax
Cc1ncsc1-c1ccc([C@H](C)NC(=O)[C@@H]2C[C@@H](O)CN2C(=O)[C@@H](NC(=O)CN2CCC(O[C@H]3C[C@H](NC(=O)C[C@@H]4N=C(c5ccc(Cl)cc5)c5c(sc(C)c5C)-n5c(C)nnc54)C3)CC2)C(C)(C)C)cc1 [Example 306, (2S,4R)-1-[(2S)-3,3-dimethyl-2-(2-{4-[(1,3-trans)-3-{2-[(9S)-7-(4-chlorophenyl)-4,5,13-trimethyl-3-thia-1,8,11,12-tetraazatricyclo[8.3.0.0^2,^6]trideca-2(6),4,7,10,12-pentaen-9-yl]acetamido}cyclobutoxy]piperidin-1-yl}acetamido)butanoyl]-4-hydroxy-N-[(1S)-1-[4-(4-methyl-1,3-thiazol-5-yl)phenyl]ethyl]pyrrolidine-2-carboxamide]	< 0.01 µM	100%
